Patent US11958846B2, “Urea compounds and compositions as SMARCA2/BRM ATPase inhibitors” (Novartis AG, priority 2018, dated 2024)
pIC50: −log10 of the molar value.

Assays:
[1] = biological target: Brg1 ATPase-SnAC (658-1361) (Homo sapiens (Human), UniProt P51532); assay: BRG1 ATPase Inhibition Assay (ADP-Glo); assay type: biochemical; conditions: 5 nM Brg1 ATPase-SnAC, 65 μM ATP, 2 nM pCMV-dR8.91 plasmid, 60 min RT
Experimental: BRG1 ATPase Inhibition Assay
BRG1 ATPase Inhibition Activity
(§1) Compound inhibition of ATPase activity of Brg1 ATPase-SnAC (658-1361) was measured by using the ADP-Glo assay kit from Promega (V6930). 120 nL of compound in 100% DMSO were transferred to a white 384 well microtiter assay plate using an ATS Acoustic Transfer System from EDC Biosystems. All subsequent reagent additions were performed using a MultiFlo FX Multi-Mode Dispenser. Assay buffer was 20 mM HEPES pH 7.5, 1 mM MgCl2, 20 mM KCl, 1 mM DTT, 0.01% BSA, 0.005% Tween 20. 4 μL of 7.5 nM Brg1 ATPase-SnAC in assay buffer was added to the assay plate and incubated at RT for 5 min with compound. 2 μL of 195 μM ATP and 6 nM pCMV-dR8.91 plasmid in assay buffer was added to assay plate to initiate the reaction. The final concentrations of reagents were 5 nM Brg1 ATPase-SnAC, 65 μM ATP, and 2 nM pCMV-dR8.91 plasmid. The ATPase reaction was incubated at RT for 60 min. 3 μL of ADP-Glo reagent was added to stop the reaction and was incubated for 30 min at RT. 3 μL of Kinase detection reagent was added to the assay plate which was incubated for 90 min at RT. Plates were read with a 2103 Multilabel Envision reader using ultrasensitive luminescence detection. IC50 values were determined from the average of duplicate data points by non-linear regression analysis of percent inhibition values plotted versus compound concentration.
(§2) pCMV-dR8.91 Plasmid Used for BRM/BRG1 ATPase Inhibition Assays:
(§3) The plasmid template pCMV-dR8.91 (see sequence below) is propagated using One Shot Stbl3 Chemically Competent E. coli (Catalog Number C73C7303, Invitrogen/Thermo Fisher Scientific) following the transformation protocol provided with the reagent. Transformed bacterial colonies are then selected on LB agar plates containing ampicillin/carbenicllin antibiotic selection medium (Catalog Number L1010, Teknova). Bacterial colonies are grown in LB liquid broth (Catalog number 10855001, Invitrogen) containing ampicillin at 100 micrograms/mL and plasmid DNA isolated according to required scale according to the manufacturers protocol provided with the Qiagen Plasmid Isolation Kits (Maxi prep, Product Id Number 10063).

[2] = biological target: Brm ATPase-SnAC (636-1331) (Homo sapiens, UniProt P51531); assay: BRM ATPase Inhibition Assay (ADP-Glo); assay type: biochemical; conditions: 5 nM BRM ATPase-SnAC, 85 μM ATP, 2 nM pCMV-dR8.91 plasmid, 60 min RT
Experimental: BRM ATPase Inhibition Assay
as §1, with “activity of Brm ATPase-SnAC (636-1331)” for “activity of Brg1 ATPase-SnAC (658-1361)”, “Brm ATPase-SnAC (636-1331) was measured” for “Brg1 ATPase-SnAC (658-1361) was measured”, “7.5 nM Brm ATPase-SnAC in” for “7.5 nM Brg1 ATPase-SnAC in”, “μL of 255 μM ATP” for “μL of 195 μM ATP”, “5 nM BRM ATPase-SnAC, 85” for “5 nM Brg1 ATPase-SnAC, 65”, “BRM ATPase-SnAC, 85 μM ATP,” for “Brg1 ATPase-SnAC, 65 μM ATP,”
as §2, §3

Brm ATPase-SnAC (636-1331), sequence (P51531 whole entry, looked up): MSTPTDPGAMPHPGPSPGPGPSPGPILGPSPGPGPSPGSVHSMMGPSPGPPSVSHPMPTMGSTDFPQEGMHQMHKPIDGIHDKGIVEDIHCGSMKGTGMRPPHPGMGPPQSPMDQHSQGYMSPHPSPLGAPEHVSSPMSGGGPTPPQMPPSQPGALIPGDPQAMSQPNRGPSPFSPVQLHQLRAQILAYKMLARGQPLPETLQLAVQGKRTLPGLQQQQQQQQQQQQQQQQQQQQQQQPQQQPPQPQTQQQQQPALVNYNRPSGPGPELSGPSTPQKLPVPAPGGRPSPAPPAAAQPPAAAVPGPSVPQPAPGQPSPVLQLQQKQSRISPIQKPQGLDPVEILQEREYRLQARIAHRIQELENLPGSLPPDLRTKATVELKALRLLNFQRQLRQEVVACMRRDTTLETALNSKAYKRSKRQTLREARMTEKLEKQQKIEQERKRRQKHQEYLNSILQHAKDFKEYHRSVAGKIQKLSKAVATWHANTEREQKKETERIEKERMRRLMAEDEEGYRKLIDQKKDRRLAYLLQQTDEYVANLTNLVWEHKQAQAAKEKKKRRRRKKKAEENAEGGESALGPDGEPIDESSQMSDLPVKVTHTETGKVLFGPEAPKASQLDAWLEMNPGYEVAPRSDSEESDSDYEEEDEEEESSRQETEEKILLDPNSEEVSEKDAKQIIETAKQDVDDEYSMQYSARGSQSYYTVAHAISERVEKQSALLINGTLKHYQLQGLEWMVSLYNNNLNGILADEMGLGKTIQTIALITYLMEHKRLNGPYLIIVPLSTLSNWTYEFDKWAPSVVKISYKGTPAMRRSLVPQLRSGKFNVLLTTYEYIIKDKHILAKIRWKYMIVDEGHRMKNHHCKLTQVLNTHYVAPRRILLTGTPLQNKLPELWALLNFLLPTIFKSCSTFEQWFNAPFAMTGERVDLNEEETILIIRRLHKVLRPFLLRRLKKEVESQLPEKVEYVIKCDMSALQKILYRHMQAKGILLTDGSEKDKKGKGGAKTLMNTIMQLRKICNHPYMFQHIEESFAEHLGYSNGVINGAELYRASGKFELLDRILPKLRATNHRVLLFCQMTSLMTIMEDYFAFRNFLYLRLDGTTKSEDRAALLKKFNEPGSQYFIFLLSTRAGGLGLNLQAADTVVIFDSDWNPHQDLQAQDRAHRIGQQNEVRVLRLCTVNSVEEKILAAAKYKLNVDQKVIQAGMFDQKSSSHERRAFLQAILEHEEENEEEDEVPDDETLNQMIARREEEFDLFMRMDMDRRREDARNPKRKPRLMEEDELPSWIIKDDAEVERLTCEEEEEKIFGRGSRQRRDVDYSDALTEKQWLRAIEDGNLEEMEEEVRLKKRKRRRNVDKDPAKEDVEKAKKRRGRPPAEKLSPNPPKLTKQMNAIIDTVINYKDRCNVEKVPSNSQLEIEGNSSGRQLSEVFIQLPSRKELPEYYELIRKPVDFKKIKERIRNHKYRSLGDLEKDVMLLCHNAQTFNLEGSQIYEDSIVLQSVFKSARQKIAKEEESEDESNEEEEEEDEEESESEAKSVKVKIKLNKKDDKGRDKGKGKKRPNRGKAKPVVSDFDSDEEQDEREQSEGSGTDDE
Brg1 ATPase-SnAC (658-1361), sequence (P51532 other isoform, or with tags, fused parts or gaps): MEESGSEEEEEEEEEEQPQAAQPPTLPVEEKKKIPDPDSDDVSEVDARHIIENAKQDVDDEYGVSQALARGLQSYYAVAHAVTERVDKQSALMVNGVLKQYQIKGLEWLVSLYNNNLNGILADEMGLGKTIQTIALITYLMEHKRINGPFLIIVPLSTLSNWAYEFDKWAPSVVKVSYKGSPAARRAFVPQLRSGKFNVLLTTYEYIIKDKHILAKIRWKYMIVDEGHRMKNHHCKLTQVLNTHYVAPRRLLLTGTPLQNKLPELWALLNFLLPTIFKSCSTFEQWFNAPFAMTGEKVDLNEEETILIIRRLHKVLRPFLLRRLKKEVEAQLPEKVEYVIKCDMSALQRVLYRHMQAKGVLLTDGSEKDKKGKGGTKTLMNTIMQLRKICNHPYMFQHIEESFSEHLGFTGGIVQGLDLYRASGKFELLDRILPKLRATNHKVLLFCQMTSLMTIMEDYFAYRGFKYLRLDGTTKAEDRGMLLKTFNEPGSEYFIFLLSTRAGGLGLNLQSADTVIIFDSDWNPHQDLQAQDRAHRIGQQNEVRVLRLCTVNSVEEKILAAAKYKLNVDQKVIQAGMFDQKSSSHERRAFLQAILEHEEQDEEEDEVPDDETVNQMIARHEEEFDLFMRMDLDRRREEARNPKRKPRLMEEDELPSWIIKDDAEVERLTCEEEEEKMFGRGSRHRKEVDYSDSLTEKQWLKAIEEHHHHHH

SMILES | pIC50 [1] | pIC50 [2]
O=C(Nc1ccnc(Cl)c1)Nc1cc(C(F)F)ns1 [Example 1, 1-(2-chloropyridin-4-yl)-3-(3-(difluoromethyl)isothiazol-5-yl)urea] | 8.22 | 8.30
Nc1cnc(Cl)cc1NC(=O)Nc1cc(C(F)F)ns1 [Example 4, 1-(5-amino-2-chloropyridin-4-yl)-3-(3-(difluoromethyl)isothiazol-5-yl)urea] | > 8.30 | > 8.30
Cc1cc(NC(=O)Nc2ccnc(Cl)c2)sn1 [Example 2, 1-(2-chloropyridin-4-yl)-3-(3-methylisothiazol-5-yl)urea] | 7.52 | 7.48

Continued, values first:

pIC50 [1] | pIC50 [2] | SMILES
7.72 | 7.05 | O=C(Nc1cc(C(F)F)ns1)Nc1ccnc(F)c1CO [Example 8, 1-(3-(difluoromethyl)isothiazol-5-yl)-3-(2-fluoro-3-(hydroxymethyl)pyridin-4-yl)urea]
> 8.30 | > 8.30 | O=C(Nc1cc(C(F)F)ns1)Nc1cc(F)ncc1CO [Example 7, 1-(3-(difluoromethyl)isothiazol-5-yl)-3-(2-fluoro-5-(hydroxymethyl)pyridin-4-yl)urea]
> 8.30 | > 8.30 | Nc1cnc(F)cc1NC(=O)Nc1cc(C(F)F)ns1 [Example 6, 1-(5-amino-2-fluoropyridin-4-yl)-3-(3-(difluoromethyl)isothiazol-5-yl)urea]
> 8.30 | > 8.30 | O=C(Nc1cc(C(F)F)ns1)Nc1cc(Cl)ncc1CO [Example 5, 1-(2-chloro-5-(hydroxymethyl)pyridin-4-yl)-3-(3-(difluoromethyl)isothiazol-5-yl)urea]
